Test results published in US20080268492A1, “Methods for Determining Optimal Techniques for Vitrification of Isolated Cells” (THE CURATORS OF THE UNIVERSITY OF MISSOURI, priority 2007, published 2008).
Read-outs that look alike come from different tables or passages of the source.

Key:
Rhesus macaque oocytes = settings: single-step addition and removal; cited from earlier work
[1] = test system: mature (MII) human oocytes
Procedure: Measurements of oocyte permeability were conducted at different temperatures on an inverted microscope (Leica DMIRB, China). Perfusion of the oocytes was performed as previously described and validated in the laboratory Oocytes were placed in 20 μl drops of Hepes-HTF (Irvine Scientific) with 10% SSS in a petri dish covered with mineral oil (Vitrolife; Englewood, Colo., USA) to prevent evaporation. An initial photograph was taken of the oocyte in order to calculate the initial volume. […] When the perfusate merged with the 20 μl drop of base medium, photographs of the oocytes were taken at regular intervals.
The oocytes were held in place during the experiment using a glass holding pipette (Humagen Holding MPH-MED-30, I.D.-20 μm, O.D.-95˜120 μm) and micromanipulators (#RI MODEL SAS11/2-E, Integra Research Instruments, UK). For temperatures lower than ambient, a 35 mm Petri dish (Falcon 35-1008) was placed in an aluminum chamber that was cooled with circulating liquid via a cooling bath (Fisher model 9109) and pumped through the aluminum chamber using polymer tubing. The bottom of the dish was wrapped in aluminum foil and a square hole was cut in the foil to facilitate viewing the oocyte. This was performed so the dish would fit snugly in the chamber to facilitate heat transfer from the chamber to the dish. The temperature in the cooling bath was set to either −2° C. or +7° C. for the 2 cold temperatures. The actual temperature of the media in the dish was warmer than this due to heat exchange of the fluid as it circulated through the tubing and chamber.
For the third treatment, oocyte permeability was measured at ambient temperature (˜25° C.) where the perfusion took place in a 50 mm Petri dish (Falcon 35-1006) placed on the microscope stage with no heating or cooling. Finally, the warmest temperature was attained in a similar fashion but the temperature of the media was raised by using a microscope stage warmer set to 39° C. Variations in temperature of the media occurred due to day-to-day fluctuations in temperature in the laboratory. However, the actual temperature of the media for each replicate during the experiment was measured using a type-T (copper/constantan) thermocouple and an electronic thermometer (model 51 II, Fluke Corporation, Everett, Wash. USA).
After the experimental run, the oocyte was released from the holding pipette on the micromanipulator and the temperature of the medium was measured such that the thermocouple was visible in the microscope field of view, ensuring that the temperature was recorded at the exact location of the oocyte. […] The exact time of these transitions was recorded during each replication and was accounted for during the calculations to estimate the permeability parameters. […]

[2] = cited from earlier work; for concentration required to maintain a vitreous state during slow warming: aqueous solution with this compound as the only solute; for total solute required to maintain a vitreous state during cooling and warming: prior analysis
bovine oocytes = settings: 4 or 5.5 mol/L EG in a single step; cited from earlier work
mouse oocytes = settings: cited from earlier work
[3] = Differential scanning calorimetry of EG/sucrose/saline solutions (vitreous state during cooling and warming); assay type: physicochemical; settings: for total concentration of the solution necessary to prevent crystallization during warming: cooling 100° C/min, warming 10° C/min; for DSC thermogram during warming: sucrose 0.3 molal with EG
Procedure: This experiment was designed to determine the amount of EG necessary to maintain an ice-free (i.e. vitreous) state during cooling to cryogenic temperatures ([…]; below the glass transition temperature of these solutions) and warming, when the sucrose concentration ranged from 0.1 to 1.1 molal (mol/kg; equivalent to 0.053 to 0.53 molar (mol/L)). In studies of the physical properties of solutions, components of the solutions are usually measured by weight, not volume. […] Furthermore, concentrations are usually reported in weight fractions (weight percent (w/w, or wt %)). These conventions were used in this experiment and references was made to the equivalent molar concentrations when comparing the results to previously published studies.
A Diamond Differential Scanning Calorimeter (DSC; Perkin-Elmer Waltham, Mass., USA) outfitted with an autosampler and CryoFill liquid nitrogen cooling system was employed for the thermal analysis. The solutions were composed of water (5 g) and NaCl (0.0045 g) to which various amounts of sucrose and EG were added. For this experiment, spectrophotometric grade (>99%) EG was utilized. All components were weighed on an analytical balance. Errors between the target and actual weight percent were less than 0.1% in all instances. To test the vitrification properties of the solutions, 5 μl (˜0.0055 grams) were loaded into standard 10 μl aluminum DSC pans (Perkin-Elmer Part # BO14-3015), and the pans were hermetically sealed. Embryo-grade water and HPLC-grade (>99.9% purity) cyclohexane were also run as calibration standards.
Analyses were conducted at a cooling rate of 100° C./min and a warming rate of 10° C./min to be consistent with previous studies. […] Random noise was estimated by determining the standard deviation of the actual signal from the expected value from the polynomial fit. When an apparent crystallization peak followed by a melting peak in the expected temperature range was noted, and the maximum point on the melting peak was beyond three standard deviations from the expected value, it was classified as a thermal event. Only when three independent solutions confirmed the absence of crystallization and melting was the solution classified as having achieved and maintained a vitreous state throughout the cooling and warming procedure.

SMILES: OCCO [EG, ethylene glycol]
- EG concentration causing membrane damage (Rhesus macaque oocytes): ≥ 3 mol/L
- Lp (hydraulic conductivity) in the presence of EG ([1]; 6.7° C): 0.15 μm/(min·atm)
- Lp (hydraulic conductivity) in the presence of EG ([1]; 35.7° C): 1.17 μm/(min·atm)
- activation energy for Lp ([1]; Arrhenius plot, 95% CI 13.19 to 15.65): 14.42 kcal/mol
- activation energy for Ps ([1]; Arrhenius plot, 95% CI 19.49 to 22.91): 21.20 kcal/mol
- concentration required to maintain a vitreous state during slow warming [2]: ~59 wt %
- EG concentration necessary to maintain a vitreous state ([2]; cooling and warming at the DSC rates (100 and 10° C/min)): 59 wt %
- EG concentration that should maintain a vitreous state ([2]; warming rate on the order of 1×10^3° C/min): 50 wt %
- EG concentration that should maintain a vitreous state ([2]; warming rate on the order of 1×10^4° C/min): 48 wt %
- effect on developmental potential (bovine oocytes): significant reduction
- effect on development compared to untreated oocytes (mouse oocytes; 6 mol/L EG for 5 minutes): no effect on development
- reduction of developmental potential (mouse oocytes; 7 mol/L EG, 2-step exposure): 30%
- mean blastocyst development rate (mouse oocytes; 8 mol/L EG, exposure less than 1 minute, controls ~62%): ~50%

SMILES: OC[C@H]1O[C@@](CO)(O[C@H]2O[C@H](CO)[C@@H](O)[C@H](O)[C@H]2O)[C@@H](O)[C@@H]1O [sucrose]
- concentration required to maintain a vitreous state during slow warming [2]: > 70 wt %
- total solute required to maintain a vitreous state during cooling and warming ([2]; sucrose 0 mol/kg with EG): 59 wt %
- total solute required to maintain a vitreous state during cooling and warming ([2]; sucrose 0.1 mol/kg with EG): 60 wt %
- total solute required to maintain a vitreous state during cooling and warming ([2]; sucrose 0.5 mol/kg with EG): 61 wt %
- total solute required to maintain a vitreous state during cooling and warming ([2]; sucrose 1.0 mol/kg with EG): 65 wt %
- total concentration of the solution necessary to prevent crystallization during warming ([3]; 0.1 mol/kg sucrose with EG in saline): 59 wt %
- total concentration of the solution necessary to prevent crystallization during warming ([3]; 0.3 mol/kg sucrose with EG in saline): 59 wt %
- total concentration of the solution necessary to prevent crystallization during warming ([3]; 0.5 mol/kg sucrose with EG in saline): 59 wt %
- total concentration of the solution necessary to prevent crystallization during warming ([3]; 0.7 mol/kg sucrose with EG in saline): 60 wt %
- total concentration of the solution necessary to prevent crystallization during warming ([3]; 0.9 mol/kg sucrose with EG in saline): 61 wt %
- total concentration of the solution necessary to prevent crystallization during warming ([3]; 1.1 mol/kg sucrose with EG in saline): 61 wt %
- DSC thermogram during warming ([3]; total solute 55% weight): crystallization and melting peaks
- DSC thermogram during warming ([3]; total solute 59 weight %): no evidence of crystallization and melting
